Results reported in PubChem BioAssay AID624367 (Broad Institute, 2012).
Activity calls are given as the source filed them. No rule for the calls is given here.

Assay: viability loss in LCL cells – cell-based, plate reader, dry powder, set 2, cytotoxicity control, dose response (AID 624367)
Conditions: Lymphoblastoid cell line (LCL) cytotoxicity, plate reader; at 30 µM (top of the series)

Compound | activity change, negative = cytotoxicity
Cc1noc(C)c1S(=O)(=O)Nc1ccc2c(c1)C(=O)N([C@@H](C)CO)C[C@@H](C)[C@H](CN(C)Cc1ccc(C(F)(F)F)cc1)OCCCC[C@H](C)O2 | -0.638% (inactive)
Cc1cc(C(=O)Nc2ccc3c(c2)C(=O)N(C)[C@@H]2CC[C@H](CC(=O)NCc4ccc(-c5ccccc5)cc4)O[C@H]2CO3)no1 | -7.18% (inactive)

Same assay, conditions: Lymphoblastoid cell line (LCL) cytotoxicity, plate reader; at 35 µM (top of the series)

Compound | activity change, negative = cytotoxicity
C[C@H]1CN([C@@H](C)CO)C(=O)Cc2cc(NC(=O)Cc3ccccc3)ccc2O[C@H]1CN(C)Cc1ccc(C(F)(F)F)cc1 | 2.21% (inactive)
COC(=O)C[C@H]1C[C@H]2c3cc(NC(=O)CN(C)C)ccc3O[C@H]2[C@H](CO)O1 | 3.27% (inactive)
C[C@H](CO)N1C[C@H](C)[C@@H](CN(C)C(=O)Nc2ccc(F)cc2)OCc2ccccc2-c2c(n(C)c3ccccc23)C1=O | -2.81% (inactive)
COc1cccc(S(=O)(=O)N(C)C[C@H]2Oc3cc(C4=CCCCC4)ccc3S(=O)(=O)N([C@@H](C)CO)C[C@@H]2C)c1 | 4.96% (inactive)
COc1ccccc1C#Cc1ccc2c(c1)O[C@H](CN(C)Cc1cccnc1)[C@@H](C)CN([C@@H](C)CO)S2(=O)=O | -6.79% (inactive)
Cc1cc(C(=O)Nc2ccc3c(c2)C(=O)N(C)[C@H]2CC[C@H](CC(=O)NCc4ccc(-c5ccccc5)cc4)O[C@H]2CO3)no1 | -10.2% (inactive)
C[C@H](NC(=O)C[C@H]1C[C@@H]2c3cc(NC(=O)c4cccnc4)ccc3O[C@@H]2[C@@H](CO)O1)c1ccccc1 | -1.74% (inactive)
O=C(C[C@@H]1C[C@H]2c3cc(NS(=O)(=O)c4ccc(F)cc4)ccc3O[C@H]2[C@@H](CO)O1)NC1CCCCC1 | 5.66% (inactive)
CN1C(=O)c2cc(NC(=O)c3ccc(C(F)(F)F)cc3)ccc2OC[C@@H]2O[C@@H](CC(=O)NC3Cc4ccccc4C3)CC[C@H]21 | -7.43% (inactive)
C[C@@H]1CN([C@H](C)CO)C(=O)c2c(c3ccccc3n2C)-c2ccccc2CO[C@@H]1CN(C)C(=O)Nc1ccc(F)cc1 | -1.38% (inactive)
Cc1noc(C)c1S(=O)(=O)Nc1ccc2c(c1)C(=O)N([C@H](C)CO)C[C@H](C)[C@@H](CN(C)Cc1ccc(C(F)(F)F)cc1)OCCCC[C@@H](C)O2 | -2.6% (inactive)
CO[C@H]1CN(C)C(=O)c2ccc(NC(=O)C3CC3)cc2OC[C@H](C)N(C(=O)c2ccccn2)C[C@H]1C | -0.57% (inactive)
CS(=O)(=O)Nc1ccc2c(c1)[C@@H]1C[C@H](CC(=O)NCC3CC3)O[C@H](CO)[C@@H]1O2 | 1.53% (inactive)
C[C@@H](NC(=O)C[C@H]1C=C[C@@H](NC(=O)Cc2ccccn2)[C@H](CO)O1)c1ccccc1 | -1.43% (inactive)
CC(C)NC(=O)N1Cc2cc(C(=O)NC3Cc4ccccc4C3)nc(-c3cccc(-c4cccnc4)c3)c2[C@@H]1CCO | 0.066% (inactive)
CC(C)NC(=O)N1Cc2cc(C(=O)NC3Cc4ccccc4C3)nc(-c3cccc(-c4cccnc4)c3)c2[C@H]1CCO | -2.11% (inactive)
O=C(C[C@@H]1C[C@@H]2c3cc(NC(=O)c4cccnc4)ccc3O[C@@H]2[C@H](CO)O1)NCC(F)(F)F | -0.745% (inactive)
C[C@@H]1CN([C@H](C)CO)S(=O)(=O)c2ccc(C#C[C@@H](C)O)cc2O[C@H]1CN(C)Cc1ccc(-c2ccccc2)cc1 | -3.17% (inactive)
COc1cccc(-c2cccc(-c3nc(C(=O)NCC(F)(F)F)cc4c3[C@H](CCO)N([S@@](=O)C(C)(C)C)C4)c2)c1 | -12.4% (inactive)

Compound | activity change, negative = cytotoxicity
O=C(Cc1ccccn1)NCC[C@@H]1CC[C@@H](NC(=O)Nc2ccc(Cl)cc2)[C@H](CO)O1 | -2.4% (inactive)
C[C@H](NC(=O)C[C@@H]1C=C[C@@H](NC(=O)Cc2ccccn2)[C@H](CO)O1)c1ccccc1 | 3.26% (inactive)
C[C@@H](NC(=O)C[C@@H]1C=C[C@@H](NC(=O)Cc2ccccn2)[C@H](CO)O1)c1ccccc1 | 0.18% (inactive)
C[C@H](CO)N1C[C@H](C)[C@@H](CN(C)Cc2ccc(C(F)(F)F)cc2)Oc2ccc(NC(=O)Cc3ccccc3)cc2CC1=O | -0.272% (inactive)
CC(C)(C)[S@@](=O)N1Cc2cc(C(=O)NCCc3ccncc3)nc(-c3cccc(-c4cccnc4)c3)c2[C@H]1CCO | 4.85% (inactive)
CC(C)NC(=O)N1[C@H](CO)[C@H](c2ccc(C#CC3CCCCC3)cc2)[C@@H]1C#N | -1.32% (inactive)
CC(=O)N(C)C[C@@H]1Oc2cc(C#Cc3ccc(F)cc3)ccc2S(=O)(=O)N([C@H](C)CO)C[C@H]1C | 1.69% (inactive)
O=C(Cc1ccccn1)NCC[C@H]1CC[C@@H](NC(=O)Nc2ccc(Cl)cc2)[C@@H](CO)O1 | -2.19% (inactive)
C[C@@H]1CN([C@@H](C)CO)C(=O)c2c(c3ccccc3n2C)-c2ccccc2CO[C@H]1CN(C)C(=O)Nc1ccc(F)cc1 | 3.34% (inactive)
Cc1noc(C)c1S(=O)(=O)Nc1ccc2c(c1)C(=O)N([C@@H](C)CO)C[C@@H](C)[C@@H](CN(C)Cc1ccc(C(F)(F)F)cc1)OCCCC[C@@H](C)O2 | -5.16% (inactive)
C[C@@H]1CN([C@@H](C)CO)S(=O)(=O)c2ccc(C#Cc3ccncc3)cc2O[C@H]1CN(C)C(=O)Nc1ccc2c(c1)OCO2 | -1.7% (inactive)
C[C@@H](NC(=O)C[C@@H]1C=C[C@H](NC(=O)Cc2ccccn2)[C@@H](CO)O1)c1ccccc1 | -4.44% (inactive)
CN(C)c1ccc2c(c1)[C@@H]1C[C@@H](CC(=O)NCc3ccc(Oc4ccccc4)cc3)O[C@@H](CO)[C@@H]1O2 | 8.56% (inactive)
CC(C)(C)[S@@](=O)N1Cc2cc(C(=O)NCc3ccccc3F)nc(-c3cccc(-c4cccnc4)c3)c2[C@H]1CCO | -3.02% (inactive)
COc1ccccc1CNC(=O)C[C@@H]1C[C@H]2c3cc(NC(=O)c4ccc5c(c4)OCO5)ccc3O[C@H]2[C@H](CO)O1 | -4.54% (inactive)
C[C@@H]1CN([C@@H](C)CO)S(=O)(=O)c2ccc(C#C[C@@H](C)O)cc2O[C@H]1CN(C)Cc1ccc(-c2ccccc2)cc1 | -1.38% (inactive)
O=C(C[C@H]1C[C@@H]2c3cc(NS(=O)(=O)c4ccc(F)cc4)ccc3O[C@@H]2[C@H](CO)O1)NC1CCCCC1 | 0.09% (inactive)
COc1cccc(S(=O)(=O)N(C)C[C@@H]2Oc3cc(C4=CCCCC4)ccc3S(=O)(=O)N([C@@H](C)CO)C[C@H]2C)c1 | 0.436% (inactive)
C[C@H](CO)N1C[C@H](C)[C@H](CN(C)Cc2ccc(Oc3ccccc3)cc2)Oc2ccc(NC(=O)CCCN(C)C)cc2C1=O | -0.446% (inactive)

Compound | activity change, negative = cytotoxicity
Cc1ccc(S(=O)(=O)N(C)C[C@H]2Oc3cc(C#Cc4ccncc4)ccc3S(=O)(=O)N([C@@H](C)CO)C[C@@H]2C)cc1 | 8.38% (inactive)
COc1ccccc1C#Cc1cnc2c(c1)C(=O)N([C@@H](C)CO)C[C@H](C)[C@@H](CN(C)C(=O)c1ccc3c(c1)OCO3)O2 | 16.2% (inactive)
O=C(C[C@@H]1CC[C@@H]2[C@H](COC[C@H](O)CN2Cc2ccc3c(c2)OCO3)O1)Nc1ccc(-c2ccccc2)cc1 | -4.84% (inactive)
N#C[C@H]1[C@@H](c2ccc(-c3cccnc3)cc2)[C@@H](CO)N1C(=O)Nc1ccc(F)cc1 | 3.54% (inactive)
O=C(Cc1ccccn1)NCC[C@H]1CC[C@H](NC(=O)Nc2ccc(Cl)cc2)[C@@H](CO)O1 | 3.54% (inactive)
COc1ccccc1C#Cc1cnc2c(c1)C(=O)N([C@H](C)CO)C[C@H](C)[C@@H](CN(C)C(=O)c1ccc3c(c1)OCO3)O2 | 8.25% (inactive)
C[C@H]1CN([C@@H](C)CO)C(=O)c2cc(C#Cc3ccccc3F)cnc2O[C@@H]1CN(C)C(=O)C1CCCCC1 | 8.49% (inactive)
O=C(Cc1ccccn1)NCC[C@@H]1CC[C@H](NC(=O)Nc2ccc(Cl)cc2)[C@H](CO)O1 | 7.74% (inactive)
C[C@@H]1CN([C@@H](C)CO)C(=O)Cc2cc(NC(=O)Cc3ccccc3)ccc2O[C@H]1CN(C)Cc1ccc(C(F)(F)F)cc1 | -7.42% (inactive)
C[C@@H](NC(=O)C[C@@H]1C=C[C@H](NC(=O)Cc2ccccn2)[C@H](CO)O1)c1ccccc1 | 6.45% (inactive)
CC(C)c1ccc(NC(=O)C[C@H]2CC[C@H]3[C@@H](COc4ccc(NC(=O)Nc5ccc(F)c(F)c5)cc4C(=O)N3C)O2)cc1 | -0.979% (inactive)
O=C(C[C@@H]1C[C@@H]2c3cc(NS(=O)(=O)c4ccc(F)cc4)ccc3O[C@@H]2[C@H](CO)O1)NC1CCCCC1 | 0.429% (inactive)
C[C@H](NC(=O)C[C@@H]1C=C[C@H](NC(=O)Cc2ccccn2)[C@@H](CO)O1)c1ccccc1 | 4.27% (inactive)
C[C@@H]1CN([C@H](C)CO)C(=O)c2c(c3ccccc3n2C)-c2ccccc2CO[C@H]1CN(C)C(=O)Nc1ccc(F)cc1 | 1.26% (inactive)
O=C(Cc1ccccn1)NCC[C@@H]1CC[C@H](NC(=O)Nc2ccc(Cl)cc2)[C@@H](CO)O1 | 6.35% (inactive)
COc1ccc(S(=O)(=O)N(C)C[C@H]2Oc3ncc(/C=C/c4ccccc4)cc3C(=O)N([C@H](C)CO)C[C@@H]2C)cc1 | 7.14% (inactive)
O=C(C[C@@H]1C[C@H]2c3cc(NS(=O)(=O)c4ccc(F)cc4)ccc3O[C@H]2[C@H](CO)O1)NCc1ccc(Oc2ccccc2)cc1 | -1.34% (inactive)
C[C@H](NC(=O)C[C@H]1C=C[C@H](NC(=O)Cc2ccccn2)[C@H](CO)O1)c1ccccc1 | 10.5% (inactive)
C[C@@H]1CN([C@H](C)CO)C(=O)Cc2cc(NC(=O)Cc3ccccc3)ccc2O[C@H]1CN(C)Cc1ccc(C(F)(F)F)cc1 | 3.94% (inactive)
